Assay results: patent publication US20100311714A1, “1H-IMIDAZO[4,5-c]QUINOLINONE COMPOUNDS” (priority 2009, published 2010)
Like-named read-outs stand apart in the source and are kept apart here.

Biological target: T1, PI3K beta (Homo sapiens, UniProt P42338)
T1 construct: for the full-length p110-b subunit are generated and fused by overlapping PCR; His tag (C); made in house; host or cells: baculovirus BV949; Tn5 (Trichoplusia ni) or TiniPro insect cells
Test: PI3K beta kinase assay (Kinase-Glo luminescence)
Type: biochemical
Outline: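 PI3Kβ construct BV949 (p85 iSH2–p110β full-length, C-His), 25 nM, reacted with 1 μM ATP and 10 μg/mL phosphatidylinositol in Tris pH 7.5, MgCl2, NaCl, CHAPS, DTT buffer, 60 min at room temperature. Remaining ATP by Kinase-Glo luminescence; IC50 from 4-parameter logistic fit of 8 concentrations.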

T1 sequence (P42338 with tags, fused parts or gaps limits assumed): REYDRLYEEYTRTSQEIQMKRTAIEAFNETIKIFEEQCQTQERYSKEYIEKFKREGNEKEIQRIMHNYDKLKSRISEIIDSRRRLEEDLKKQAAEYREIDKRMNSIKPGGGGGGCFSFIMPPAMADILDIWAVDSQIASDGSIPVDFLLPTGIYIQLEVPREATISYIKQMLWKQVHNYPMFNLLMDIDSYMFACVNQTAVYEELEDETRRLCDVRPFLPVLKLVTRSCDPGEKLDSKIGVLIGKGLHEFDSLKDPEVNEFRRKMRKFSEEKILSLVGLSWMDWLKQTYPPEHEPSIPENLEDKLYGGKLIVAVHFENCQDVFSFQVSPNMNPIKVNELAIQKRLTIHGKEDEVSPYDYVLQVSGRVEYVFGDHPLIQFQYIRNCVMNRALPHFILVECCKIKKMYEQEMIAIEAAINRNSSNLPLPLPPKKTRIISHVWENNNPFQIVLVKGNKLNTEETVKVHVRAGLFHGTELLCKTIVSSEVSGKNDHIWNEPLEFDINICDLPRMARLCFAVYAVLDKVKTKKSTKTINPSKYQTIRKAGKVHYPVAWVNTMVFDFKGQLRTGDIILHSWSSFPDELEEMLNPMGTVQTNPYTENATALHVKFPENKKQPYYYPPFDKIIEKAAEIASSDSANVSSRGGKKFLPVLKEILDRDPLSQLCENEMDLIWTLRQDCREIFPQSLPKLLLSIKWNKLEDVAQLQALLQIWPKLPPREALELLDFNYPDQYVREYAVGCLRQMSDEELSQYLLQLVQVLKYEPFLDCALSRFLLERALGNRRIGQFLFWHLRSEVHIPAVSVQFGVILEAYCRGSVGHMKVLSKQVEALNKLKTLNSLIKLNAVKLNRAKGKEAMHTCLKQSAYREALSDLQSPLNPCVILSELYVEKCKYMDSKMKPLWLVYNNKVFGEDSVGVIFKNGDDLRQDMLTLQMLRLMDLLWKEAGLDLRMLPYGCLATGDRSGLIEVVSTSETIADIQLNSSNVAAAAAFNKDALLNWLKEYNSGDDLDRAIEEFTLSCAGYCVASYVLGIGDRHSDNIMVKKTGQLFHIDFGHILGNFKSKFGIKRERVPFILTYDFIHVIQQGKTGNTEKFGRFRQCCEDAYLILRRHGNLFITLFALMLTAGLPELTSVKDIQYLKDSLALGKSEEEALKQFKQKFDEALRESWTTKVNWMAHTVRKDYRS

CNc1ncc(-c2ccc3ncc4c(c3c2)n(-c2ccc(OCCOC)nc2C)c(=O)n4C)cn1 [Example 13.5, 1-[6-(2-Methoxy-ethoxy)-2-methyl-pyridin-3-yl]-3-methyl-8-(2-methylamino-pyrimidin-5-yl)-1,3-dihydro-imidazo[4,5-c]quinolin-2-one]
IC50 (read-out: EPK_PI3Kbeta/IC50): 658 nM

CCNc1cc(-c2ccc3ncc4c(c3c2)n(-c2ccc(N(C)CCOC)nc2C)c(=O)n4C)cnc1C [Example 15.6, 8-(5-Ethylamino-6-methyl-pyridin-3-yl)-1-{6-[(2-methoxy-ethyl)-methyl-amino]-2-methyl-pyridin-3-yl}-3-methyl-1,3-dihydro-imidazo[4,5-c]quinolin-2-one]
IC50 (read-out: EPK_PI3Kbeta/IC50): 28 nM

Cc1ccc(-n2c(=O)n(C)c3cnc4ccc(-c5cncc(NC(C)C)c5)cc4c32)c(C)n1 [Example 14.8, 1-(2,6-Dimethyl-pyridin-3-yl)-8-(5-isopropylamino-pyridin-3-yl)-3-methyl-1,3-dihydro-imidazo[4,5-c]quinolin-2-one]
IC50 (read-out: EPK_PI3Kbeta/IC50): 53 nM

Cc1nc(N(C)C)ccc1-n1c(=O)n(C)c2cnc3ccc(-c4cncc(N)c4)cc3c21 [Example 19.5, 8-(5-Amino-pyridin-3-yl)-1-(6-dimethylamino-2-methyl-pyridin-3-yl)-3-methyl-1,3-dihydro-imidazo[4,5-c]quinolin-2-one]
IC50 (read-out: EPK_PI3Kbeta/IC50): 300 nM

COCc1ncc(-c2ccc3ncc4c(c3c2)n(-c2ccc(OC)nc2OC)c(=O)n4C)cc1OC [Example 8.12, 1-(2,6-Dimethoxy-pyridin-3-yl)-8-(5-methoxy-6-methoxymethyl-pyridin-3-yl)-3-methyl-1,3-dihydro-imidazo[4,5-c]quinolin-2-one]
IC50 (read-out: EPK_PI3Kbeta/IC50): 212 nM

Cc1nc(F)ccc1-n1c(=O)n(C)c2cnc3ccc(-c4cncc(N)c4)cc3c21 [Example 7.16, 8-(5-Amino-pyridin-3-yl)-1-(6-fluoro-2-methyl-pyridin-3-yl)-3-methyl-1,3-dihydro-imidazo[4,5-c]quinolin-2-one]
IC50 (read-out: EPK_PI3Kbeta/IC50): 236 nM

COc1ccc(-n2c(=O)n(C)c3cnc4ccc(-c5cnc(N)c(C(F)(F)F)c5)cc4c32)c(OC)n1 [Example 8.1, 8-(6-Amino-5-trifluoromethyl-pyridin-3-yl)-1-(2,6-dimethoxy-pyridin-3-yl)-3-methyl-1,3-dihydro-imidazo[4,5-c]quinolin-2-one]
IC50 (read-out: PI3Kbeta/IC50): 23 nM

CNc1ncc(-c2ccc3ncc4c(c3c2)n(-c2ccc(F)nc2C)c(=O)n4C)cc1C(F)(F)F [Example 7.13, 1-(6-Fluoro-2-methyl-pyridin-3-yl)-3-methyl-8-(6-methylamino-5-trifluoromethyl-pyridin-3-yl)-1,3-dihydro-imidazo[4,5-c]quinolin-2-one]
IC50 (read-out: EPK_PI3Kbeta/IC50): 42 nM

CCNc1cc(-c2ccc3ncc4c(c3c2)n(-c2ccc(OC)nc2Cl)c(=O)n4C)cnc1C [Example 18.1, 1-(2-Chloro-6-methoxy-pyridin-3-yl)-8-(5-ethylamino-6-methyl-pyridin-3-yl)-3-methyl-1,3-dihydro-imidazo[4,5-c]quinolin-2-one]
IC50 (read-out: EPK_PI3Kbeta/IC50): 41 nM

COCCN(C)c1ccc(-n2c(=O)n(C)c3cnc4ccc(-c5cnc(N(C)C)nc5)cc4c32)c(C)n1 [Example 15.5, 8-(2-Dimethylamino-pyrimidin-5-yl)-1-{6-[(2-methoxy-ethyl)-methyl-amino]-2-methyl-pyridin-3-yl}-3-methyl-1,3-dihydro-imidazo[4,5-c]quinolin-2-one]
IC50 (read-out: EPK_PI3Kbeta/IC50): 448 nM

Cc1ccc(-n2c(=O)n(C)c3cnc4ccc(-c5cnc(N)c(C(F)(F)F)c5)cc4c32)c(C)n1 [Example 14.5, 8-(6-Amino-5-trifluoromethyl-pyridin-3-yl)-1-(2,6-dimethyl-pyridin-3-yl)-3-methyl-1,3-dihydro-imidazo[4,5-c]quinolin-2-one]
IC50 (read-out: EPK_PI3Kbeta/IC50): 9 nM

COCCOc1cc(-c2ccc3ncc4c(c3c2)n(-c2ccc(OC)nc2OC)c(=O)n4C)cnc1C [Example 8.9, 1-(2,6-Dimethoxy-pyridin-3-yl)-8-[5-(2-methoxy-ethoxy)-6-methyl-pyridin-3-yl]-3-methyl-1,3-dihydro-imidazo[4,5-c]quinolin-2-one]
IC50 (read-out: EPK_PI3Kbeta/IC50): 43 nM

COCCOc1ccc(-n2c(=O)n(C)c3cnc4ccc(-c5cncc(N6CCC6)c5)cc4c32)c(C)n1 [Example 22.2, 8-(5-Azetidin-1-yl-pyridin-3-yl)-1-[6-(2-methoxy-ethoxy)-2-methyl-pyridin-3-yl]-3-methyl-1,3-dihydro-imidazo[4,5-c]quinolin-2-one]
IC50 (read-out: EPK_PI3Kbeta/IC50): 746 nM

CNc1ncc(-c2ccc3ncc4c(c3c2)n(-c2cccnc2C)c(=O)n4C)cn1 [Example 2.2, 3-Methyl-8-(2-methylamino-pyrimidin-5-yl)-1-(2-methyl-pyridin-3-yl)-1,3-dihydro-imidazo[4,5-c]quinolin-2-one]
IC50 (read-out: PI3Kbeta/IC50): 165 nM

COCCN(C)c1ccc(-n2c(=O)n(C)c3cnc4ccc(-c5cnc(CO)c(OC)c5)cc4c32)c(C)n1 [Example 15.9, 8-(6-Hydroxymethyl-5-methoxy-pyridin-3-yl)-1-{6-[(2-methoxy-ethyl)-methyl-amino]-2-methyl-pyridin-3-yl}-3-methyl-1,3-dihydro-imidazo[4,5-c]quinolin-2-one]
IC50 (read-out: EPK_PI3Kbeta/IC50): 15 nM

CCNc1cc(-c2ccc3ncc4c(c3c2)n(-c2ccc(OC)nc2C)c(=O)n4C)cnc1C [Example 11.7, 8-(5-Ethylamino-6-methyl-pyridin-3-yl)-1-(6-methoxy-2-methyl-pyridin-3-yl)-3-methyl-1,3-dihydro-imidazo[4,5-c]quinolin-2-one]
IC50 (read-out: EPK_PI3Kbeta/IC50): 6 nM

CCNc1cc(-c2ccc3ncc4c(c3c2)n(-c2ccc(N3CC(F)(F)C3)nc2C)c(=O)n4C)cnc1CO [Example 24.3, 1-[6-(3,3-Difluoro-azetidin-1-yl)-2-methyl-pyridin-3-yl]-8-(5-ethylamino-6-hydroxymethyl-pyridin-3-yl)-3-methyl-1,3-dihydro-imidazo[4,5-c]quinolin-2-one]
IC50 (read-out: EPK_PI3Kbeta/IC50): 27 nM

COc1ccc(-c2ccc3ncc4c(c3c2)n(-c2cccnc2)c(=O)n4C)cn1 [Example 5.4, 8-(6-Methoxy-pyridin-3-yl)-3-methyl-1-pyridin-3-yl-1,3-dihydro-imidazo[4,5-c]quinolin-2-one]
IC50 (read-out: PI3Kbeta/IC50): 263 nM

CNc1ncc(-c2ccc3ncc4c(c3c2)n(-c2ccc(N(C)CCOC)nc2C)c(=O)n4C)cn1 [Example 15.2, 1-{6-[(2-Methoxy-ethyl)-methyl-amino]-2-methyl-pyridin-3-yl}-3-methyl-8-(2-methylamino-pyrimidin-5-yl)-1,3-dihydro-imidazo[4,5-c]quinolin-2-one]
IC50 (read-out: EPK_PI3Kbeta/IC50): 541 nM

CCNc1cc(-c2ccc3ncc4c(c3c2)n(-c2ccc(OCCOC)nc2C)c(=O)n4C)cnc1C [Example 13.4, 8-(5-Ethylamino-6-methyl-pyridin-3-yl)-1-[6-(2-methoxy-ethoxy)-2-methyl-pyridin-3-yl]-3-methyl-1,3-dihydro-imidazo[4,5-c]quinolin-2-one]
IC50 (read-out: EPK_PI3Kbeta/IC50): 62 nM

CNc1ccc(-c2ccc3ncc4c(c3c2)n(-c2cnc(F)cc2C)c(=O)n4C)cn1 [Example 16.4, 1-(6-Fluoro-4-methyl-pyridin-3-yl)-3-methyl-8-(6-methylamino-pyridin-3-yl)-1,3-dihydro-imidazo[4,5-c]quinolin-2-one]
IC50 (read-out: EPK_PI3Kbeta/IC50): 1330 nM

Cc1nc(F)ccc1-n1c(=O)n(C)c2cnc3ccc(-c4cnc(N)c(CO)c4)cc3c21 [Example 7.17, 8-(6-Amino-5-hydroxymethyl-pyridin-3-yl)-1-(6-fluoro-2-methyl-pyridin-3-yl)-3-methyl-1,3-dihydro-imidazo[4,5-c]quinolin-2-one]
IC50 (read-out: EPK_PI3Kbeta/IC50): 188 nM

CNc1cc(-c2ccc3ncc4c(c3c2)n(-c2ccc(C(F)(F)F)nc2C)c(=O)n4C)cnc1CO [Example 33.2, 8-(6-Hydroxymethyl-5-methylamino-pyridin-3-yl)-3-methyl-1-(2-methyl-6-trifluoromethyl-pyridin-3-yl)-1,3-dihydro-imidazo[4,5-c]quinolin-2-one]
IC50 (read-out: EPK_PI3Kbeta/IC50): 38 nM

CCOc1ccc(-c2ccc3ncc4c(c3c2)n(-c2ccc(N(C)CCOC)nc2C)c(=O)n4C)cn1 [Example 15.3, 8-(6-Ethoxy-pyridin-3-yl)-1-{6-[(2-methoxy-ethyl)-methyl-amino]-2-methyl-pyridin-3-yl}-3-methyl-1,3-dihydro-imidazo[4,5-c]quinolin-2-one]
IC50 (read-out: EPK_PI3Kbeta/IC50): 793 nM

COc1ccc(-c2ccc3ncc4c(c3c2)n(-c2cccnc2OC)c(=O)n4C)cn1 [Example 1.1, 1-(2-Methoxy-pyridin-3-yl)-8-(6-methoxy-pyridin-3-yl)-3-methyl-1,3-dihydro-imidazo[4,5-c]quinolin-2-one]
IC50 (read-out: PI3Kbeta/IC50): 202 nM

Cc1ccc(-n2c(=O)n(C)c3cnc4ccc(-c5cnc(N(C)C)nc5)cc4c32)c(C)n1 [Example 14.3, 8-(2-Dimethylamino-pyrimidin-5-yl)-1-(2,6-dimethyl-pyridin-3-yl)-3-methyl-1,3-dihydro-imidazo[4,5-c]quinolin-2-one]
IC50 (read-out: EPK_PI3Kbeta/IC50): 396 nM

CNc1ccc(-c2ccc3ncc4c(c3c2)n(-c2ccc(NC(=O)COC)nc2C)c(=O)n4C)cn1 [Example 20.4, 2-Methoxy-N-{6-methyl-5-[3-methyl-8-(6-methylamino-pyridin-3-yl)-2-oxo-2,3-dihydro-imidazo[4,5-c]quinolin-1-yl]-pyridin-2-yl}-acetamide]
IC50 (read-out: EPK_PI3Kbeta/IC50): 592 nM

COCC(=O)Nc1ccc(-n2c(=O)n(C)c3cnc4ccc(-c5cncc(OC(C)C)c5)cc4c32)c(C)n1 [Example 20.5, N-{5-[8-(5-Isopropoxy-pyridin-3-yl)-3-methyl-2-oxo-2,3-dihydro-imidazo[4,5-c]quinolin-1-yl]-6-methyl-pyridin-2-yl}-2-methoxy-acetamide]
IC50 (read-out: EPK_PI3Kbeta/IC50): 542 nM

CNc1cc(-c2ccc3ncc4c(c3c2)n(-c2ccc(F)nc2C)c(=O)n4C)cnc1CO [Example 7.11, 1-(6-Fluoro-2-methyl-pyridin-3-yl)-8-(6-hydroxymethyl-5-methylamino-pyridin-3-yl)-3-methyl-1,3-dihydro-imidazo[4,5-c]quinolin-2-one]
IC50 (read-out: EPK_PI3Kbeta/IC50): 41 nM
